The target in assay [1] is T1, MAGL (Homo sapiens, UniProt Q99685).
T1 sequence (Q99685 1-303): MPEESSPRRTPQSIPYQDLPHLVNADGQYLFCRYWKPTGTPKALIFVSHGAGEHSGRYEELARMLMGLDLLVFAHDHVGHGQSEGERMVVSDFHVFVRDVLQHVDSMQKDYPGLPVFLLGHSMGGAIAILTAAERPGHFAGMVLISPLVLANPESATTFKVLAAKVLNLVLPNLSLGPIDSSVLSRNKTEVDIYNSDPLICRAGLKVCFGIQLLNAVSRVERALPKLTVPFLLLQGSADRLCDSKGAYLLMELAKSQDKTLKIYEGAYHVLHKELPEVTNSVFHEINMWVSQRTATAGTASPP
Put plainly: In vitro competitive activity-based protein profiling, MAGL, human. To be noted: for inhibition at 1 µM: read-out: MAGL % inh. 1 μM (human).

For assay [2], the target named is T2, MAGL (Mus musculus, UniProt O35678).
T2 sequence (O35678 1-303): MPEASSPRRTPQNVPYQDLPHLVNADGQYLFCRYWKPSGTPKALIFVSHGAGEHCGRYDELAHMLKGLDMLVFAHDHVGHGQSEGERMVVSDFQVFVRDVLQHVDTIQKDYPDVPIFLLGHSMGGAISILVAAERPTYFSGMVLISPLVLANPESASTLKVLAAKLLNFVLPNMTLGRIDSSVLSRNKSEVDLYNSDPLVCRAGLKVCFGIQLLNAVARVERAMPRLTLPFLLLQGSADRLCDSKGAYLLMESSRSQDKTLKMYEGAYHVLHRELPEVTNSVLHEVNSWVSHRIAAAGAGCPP
Put plainly: In vitro competitive activity-based protein profiling, MAGL, mouse. As to conditions: read-out: MAGL % inh. 1 μM (mouse).

In assay [3] the target is T3, FAAH (Homo sapiens, UniProt O00519).
T3 sequence (O00519 1-579): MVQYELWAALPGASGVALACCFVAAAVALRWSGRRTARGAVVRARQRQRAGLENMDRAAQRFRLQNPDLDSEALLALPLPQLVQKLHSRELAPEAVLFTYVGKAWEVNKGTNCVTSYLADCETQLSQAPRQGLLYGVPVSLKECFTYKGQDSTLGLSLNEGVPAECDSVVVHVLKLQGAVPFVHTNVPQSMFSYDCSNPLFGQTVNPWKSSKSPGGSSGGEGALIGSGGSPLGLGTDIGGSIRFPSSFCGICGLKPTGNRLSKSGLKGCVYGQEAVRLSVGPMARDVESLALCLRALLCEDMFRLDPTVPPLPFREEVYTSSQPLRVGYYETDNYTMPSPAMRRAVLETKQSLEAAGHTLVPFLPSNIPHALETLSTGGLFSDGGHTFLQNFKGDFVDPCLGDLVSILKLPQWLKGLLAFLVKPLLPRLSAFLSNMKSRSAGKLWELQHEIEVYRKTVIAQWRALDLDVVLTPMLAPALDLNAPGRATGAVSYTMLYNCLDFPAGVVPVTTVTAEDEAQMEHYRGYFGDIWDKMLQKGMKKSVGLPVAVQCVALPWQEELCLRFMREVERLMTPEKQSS
The experiment in a line: In vitro competitive activity-based protein profiling, FAAH, human. As to conditions: for inhibition at 1 µM: read-out: FAAH % inh. 1 μM (human).

For assay [4], the target named is T4, FAAH (Mus musculus, UniProt O08914).
T4 sequence (O08914 1-579): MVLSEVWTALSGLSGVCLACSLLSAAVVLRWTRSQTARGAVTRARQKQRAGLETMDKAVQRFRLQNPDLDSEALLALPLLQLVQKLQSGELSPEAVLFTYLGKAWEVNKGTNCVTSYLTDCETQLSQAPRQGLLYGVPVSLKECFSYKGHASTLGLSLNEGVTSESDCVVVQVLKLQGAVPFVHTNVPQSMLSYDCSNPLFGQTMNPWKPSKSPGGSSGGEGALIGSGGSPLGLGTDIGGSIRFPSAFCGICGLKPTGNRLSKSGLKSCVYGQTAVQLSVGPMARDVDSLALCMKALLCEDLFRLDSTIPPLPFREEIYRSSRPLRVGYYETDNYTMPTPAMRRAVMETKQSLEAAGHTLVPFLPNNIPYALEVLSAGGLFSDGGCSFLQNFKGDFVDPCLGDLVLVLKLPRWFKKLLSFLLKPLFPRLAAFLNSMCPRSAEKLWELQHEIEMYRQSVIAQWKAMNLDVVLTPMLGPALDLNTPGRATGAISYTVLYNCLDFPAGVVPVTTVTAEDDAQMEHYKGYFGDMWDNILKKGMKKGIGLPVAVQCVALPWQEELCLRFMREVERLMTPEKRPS
Put plainly: In vitro competitive activity-based protein profiling, FAAH, mouse. As to conditions: read-out: FAAH % inh. 1 μM (mouse).

Each structure is given as a SMILES string. Bounds are passed on as bounds.

As usually defined, the IC50 is the concentration that gives 50% inhibition. High values mean weaker potency in that assay, low ones greater potency in that assay.

With `O=C(O)c1ccn(C(=O)N2CCC3(CCN(Cc4cc(F)cc(Cl)c4)C3)CC2)n1` [Example 70, 1-(2-(3-chloro-5-fluorobenzyl)-2,8-diazaspiro[4.5]decane-8-carbonyl)-1H-pyrazole-3-carboxylic acid], the inhibition at 1 µM in assay [1] was in the range of 25 to 50%; in assay [2], 0 to 25%; in assay [3], 50 to 75%; in assay [4], 0 to 25%.
On to `CN(Cc1cc(Cl)ccc1C(F)(F)F)CC1CCN(C(=O)n2cc(Cl)c(C(=O)O)n2)CC1` [Example 54, 4-chloro-1-(4-(((5-chloro-2-(trifluoromethyl)benzyl)(methyl)amino)methyl)piper-idine-1-carbonyl)-1H-pyrazole-3-carboxylic acid], for which the inhibition at 1 µM in assay [1], in assay [2], in assay [3] and in assay [4] was > 75% throughout. Further, the IC50 in assay [3] lay in the range of 100 to 1000 nM.
On to `CN(Cc1cc(Cl)ccc1C(F)(F)F)C1CCN(C(=O)n2cc(Cl)c(C(=O)O)n2)CC1` [Example 112, 4-chloro-1-(4-((5-chloro-2-(trifluoromethyl)benzyl)(methyl)amino)piperidine-1-carbonyl)-1H-pyrazole-3-carboxylic acid], for which the inhibition at 1 µM in assay [1], in assay [2], in assay [3] and in assay [4] was > 75% throughout. The molecule further showed an IC50 in assay [3] of 100 to 1000 nM.
As to `C[C@@H]1CCCCN1c1cc(C(F)(F)F)ccc1CN1CCN(C(=O)n2ccc(C(=O)O)n2)CC1` [Example 103, (R)-1-(4-(2-(2-methylpiperidin-1-yl)-4-(trifluoromethyl)benzyl)piperazine-1-carbonyl)-1H-pyrazole-3-carboxylic acid], the inhibition at 1 µM in assay [1] was > 75%; in assay [2], > 75%; in assay [3] it was 0 to 25%; in assay [4], 0 to 25%.
For `O=C(O)c1ccn(C(=O)N2CC3CN(Cc4cc(F)cc(Cl)c4)CC3C2)n1` (stereo not shown) [Example 115, 1-(5-(3-chloro-5-fluorobenzyl)octa-hydropyrrolo[3,4-c]pyrrole-2-carbonyl)-1H-pyrazole-3-carboxylic acid], the inhibition at 1 µM was 25 to 50% in assay [1], 0 to 25% in assay [2], 50 to 75% in assay [3] and > 75% in assay [4].
As to `O=C(O)c1ccn(C(=O)N2CCN(Cc3cccc(Oc4ncccn4)c3)CC2)n1` [Example 62, 1-(4-(3-(pyrimidin-2-yloxy)benzyl)piper-azine-1-carbonyl)-1H-pyrazole-3-carboxylic acid], the inhibition at 1 µM in assay [1] was 50 to 75%; in assay [2], 0 to 25%; in assay [3] it was 0 to 25%; in assay [4], 0 to 25%.
As for `O=C(O)c1ccn(C(=O)N2CCN(Cc3cccc(Oc4cnccn4)c3)CC2)n1` [Example 60], the inhibition at 1 µM is 25 to 50% in assay [1], 0 to 25% in assay [2], 0 to 25% in assay [3] and 0 to 25% in assay [4].
As for `Cc1cn(C(=O)N2CCN(Cc3cccc(Oc4ccc(Cl)cc4)c3)CC2)nc1C(=O)O` [Example 129, 1-(4-(3-(4-chlorophenoxy)benzyl)piperazine-1-carbonyl)-4-methyl-1H-pyrazole-3-carboxylic acid], the inhibition at 1 µM in assay [1], in assay [2], in assay [3] and in assay [4] was > 75% each time. The same molecule registered an IC50 in assay [3] of 100 to 1000 nM.
Regarding `O=C(O)c1ccn(C(=O)N2CCN(Cc3cccc(Oc4cccnc4)c3)CC2)n1` [Example 18, 1-(4-(3-(Pyridin-3-yloxy)benzyl)piperazine-1-carbonyl)-1H-pyrazole-3-carboxylic Acid], the inhibition at 1 µM was 50 to 75% in assay [1], 25 to 50% in assay [2], 0 to 25% in assay [3] and 0 to 25% in assay [4].
Consider `NC(=O)c1ccn(C(=O)N2CC3CN(Cc4ccc(Cl)cc4)CC3C2)n1` (stereo not shown) [Example 203, 1-(5-(4-chlorobenzyl)octa-hydropyrrolo[3,4-c]pyrrole-2-carbonyl)-1H-pyrazole-3-carboxamide], for which the inhibition at 1 µM in assay [1], in assay [2], in assay [3] and in assay [4] was > 75% throughout.
In the case of `O=C(O)c1nn(C(=O)N2CC3CN(Cc4cc(N5CCCC5)cc(C(F)(F)F)c4)CC3C2)cc1Cl` (stereo not shown) [Example 151, 4-chloro-1-(5-(3-(pyrrolidin-1-yl)-5-(trifluoromethyl)benzyl)octahydro-pyrrolo[3,4-c]pyrrole-2-carbonyl)-1H-pyrazole-3-carboxylic acid], the inhibition at 1 µM was > 75% in assay [1], > 75% in assay [2], 25 to 50% in assay [3] and 25 to 50% in assay [4].
Regarding `O=C(O)c1ccn(C(=O)N2CCC(OCc3cc(F)cc(Cl)c3)CC2)n1` [Example 42, 1-(4-((3-chloro-5-fluorobenzyl)oxy)piperidine-1-carbonyl)-1H-pyrazole-3-carboxylic acid], the IC50 in assay [1] and in assay [3] was 100 to 1000 nM throughout. Also, the inhibition at 1 µM in assay [1] was > 75%; in assay [2] it was > 75%; in assay [3], > 75%; in assay [4] it was 0 to 25%.
Turning to `O=C(O)c1ccn(C(=O)N2CCN(Cc3ccc(C(F)(F)F)cc3-c3nnn[nH]3)CC2)n1` [Example 5, 1-(4-(2-(1H-Tetrazol-5-yl)-4-(trifluoromethyl)benzyl)piperazine-1-carbonyl)-1H-pyrazole-3-carboxylic Acid], the inhibition at 1 µM is > 75% in assay [1], 50 to 75% in assay [2], 0 to 25% in assay [3] and 0 to 25% in assay [4].
With `Cc1cc(-c2ccccc2)ccc1CN1CCN(C(=O)n2ccc(C(=O)O)n2)CC1` [Example 16, 1-(4-((3-Methyl-[1,1′-biphenyl]-4-yl)methyl)piperazine-1-carbonyl)-1H-pyrazole-3-carboxylic Acid], the inhibition at 1 µM in assay [1] is > 75%; in assay [2] it was > 75%; in assay [3] it was 0 to 25%; in assay [4] it was 50 to 75%. In assay [3], this molecule yielded an IC50 of 1000 to 10000 nM.
For `O=C(O)c1ccn(C(=O)N2CCN(Cc3cccc(Oc4ccncn4)c3)CC2)n1` [Example 63, 1-(4-(3-(pyrimidin-4-yloxy)benzyl)piper-azine-1-carbonyl)-1H-pyrazole-3-carboxylic acid], the inhibition at 1 µM was in the range of 25 to 50% in assay [1], 0 to 25% in assay [2], 50 to 75% in assay [3] and 0 to 25% in assay [4].
Consider `O=C(O)c1nn(C(=O)N2CC3CN(Cc4cc(Cl)ccc4Cl)CC3C2)cc1C(F)(F)F` (stereo not shown) [Example 146, 1-(5-(2,5-dichlorobenzyl)octa-hydropyrrolo[3,4-c]pyrrole-2-carbonyl)-4-(trifluoromethyl)-1H-pyrazole-3-carboxylic acid], for which the inhibition at 1 µM in assay [1] was > 75%; in assay [2], 50 to 75%; in assay [3] it was > 75%; in assay [4] it was > 75%.

(Values after US10266497B2 (ABIDE THERAPEUTICS, INC., priority 2017, dated 2019).)
